Laboratory results: patent US4598081A, “1,3-dioxo-1H-benz(de)isoquinoline-2(3H) butyric acid, pharmacologically acceptable salts thereof and compositions containing the same for treatment of diabetes mellitus complications” (Nauchno-Issledovatelsky Institut Endokrinologii I Obmena …, priority 1985, dated 1986)
Entries after “also recorded” stand apart in the source; their conditions may differ. Counter-ions that a name gives are not always drawn.

How the values were obtained:
[1] = test system: basal membrane of the muscle capillaries; assay: thickness of capillary basal membrane of limb muscles (electron microscope) in rats with alloxan diabetes; assay type: in vivo, Wistar rats; details: for average thickness of the capillary basal membrane of the limb muscles, after administration (M): rats, alloxan diabetes, end of the experiment; for biological activity compared with 1,3-dioxo-1H-benz(de)isoquinoline-2(3H)acetic acid: comparison with prior art compound; for thickness of the basal membrane of the muscle capillaries: after treatment
[2] = solubility of the acid and its salts; assay type: physicochemical
[3] = test system: White mice; assay: acute ("high") toxicity, peroral, white mice
Method: (§1) Mature animals both male and female, weighting 18 to 22 g (white mice), 180 to 220 g (rats), 11 to 15 kg (dogs) were used for said experiments.
(§2) The drug was introduced in the form of a starch suspension through a gastric tube.
(§3) Each dose being examined was tested on 5-6 animals.
(§4) LD50 determined by the Lichfield and Wilcoxon method, or the Van der Waerden method was used as an index of high toxicity. The animals were kept under observation for 5 days.

[4] = test system: Rats; assay: acute ("high") toxicity, peroral, rats
Method: as §1, §2, §3, §4

[5] = test system: Dogs; assay: acute ("high") toxicity, peroral, dogs; details: dosage 5500
Method: as §1, §2, §3, §4

[6] = test system: white mice, rats, and dogs; assay: acute ("high") toxicity, symptoms and overall assessment in mice, rats and dogs
Method: as §1, §2, §3, §4

[7] = test system: Dogs; assay: chronic toxicity, 6 months peroral, dogs; details: in the dogs only
Method: (§5) The experiments were performed on rats, rabbits, and dogs.
(§6) In addition, the action of the proposed drug on the carbohydrate and uropoiesis functions of the liver was also examined.
(§7) The above indices were examined at the beginning of the experiment and then after 1, 2, 3, 4, 5, and 6 months.
(§8) At the end of the experiments there were carried out pathomorphological examinations of the lungs, heart, liver, kidneys, adrenal glands, spleen, lymph nodes, intestine, stomach, pancreas, and thyroid glands.
(§9) On completion of the experiment (six months) the experimental animals were killed: the dogs were killed with thiopental, the rabbits with aeroembolism, and the rats with diethyl ether. Thereafter, the lungs, heart, liver, kidneys, adrenal glands, spleen, lymph nodes, intestine, pancreas and thyroid gland of the killed animals were examined. The material thus obtained was fixed in formole. There were prepared paraffin sections which were then stained with hematoxylin and eosin.

[8] = test system: Rats; details: rat, in vivo
Method: as §5, §6, §7, §8, §9

[9] = test system: rats, rabbits, and dogs; details: in vivo
Method: as §5, §6, §7, §8, §9

[10] = test system: rats having alloxan diabetes; assay: histological examination and biomicroscopy in rats with prolonged alloxan diabetes; assay type: in vivo, Wistar rats; details: for biochemical and morphological indices: experimental animals
Method: The diabetes was caused by a single-time hypodermic injection of alloxan ("Chemapol") in a dose of 150 mg per kg of body weight.
Biomicroscopy of the conjunctiva was effected with the aid of a microscope fitted with a camera and a flash lamp.
For histological examination pieces of the kidney, liver and miocardium were fixed in 10% neutral formaline dehydrated in alcohol, and the paraffin sections were stained with hematoxylin and eosin, and also by the Van-Gizon method.

[11] = test system: aldose reductase; assay: activity of aldose reductase in tissues of animals with alloxan diabetes; assay type: in vivo, Wistar rats; details: for Activity of aldose reductase: alloxan diabetes + compound; for inhibition of aldose reductase: tissues of the experimental animals
Method: (§10) The experiments were conducted on Wistar rats (males) having a weight of 140 to 160 g. The diabetes was caused by a single-time hypodermic injection of alloxan ("Chemapol") in a dose of 150 mg per kg of body weight.
(§11) The glood glucose was determined by applying a glucoseoxidase method, cholesterine by […], aldose reductase by the method of Hayman and Kinoshita, sorbitol by a sorbitol-dehydrogenase method.

[12] = test system: sorbitol and fructose in tissues; assay: sorbitol and fructose in tissues of animals with alloxan diabetes; assay type: in vivo, Wistar rats; details: for Fructose / Sorbitol: alloxan diabetes
Method: as §10, §11

[13] = blood indices (fructose, cholesterin, glucose) in rats with alloxan diabetes; assay type: in vivo, Wistar rats
Method: as §10, §11

## O=C(O)CN1C(=O)c2cccc3cccc(c23)C1=O [1,3-dioxo-1H-benz(de)isoquinoline-2(3H)acetic acid, reference compound]
[1]
  average thickness of the capillary basal membrane of the limb muscles, after administration (M): 112 nanometers

## O=C(O)CCCN1C(=O)c2cccc3cccc(c23)C1=O [1,3-dioxo-1H-benz(de)isoquinoline-2(3H)butyric acid]
[2]; alcohol, when heated
  solubility in alcohol: soluble
[2]; dimethyl-formamide, when heated
  solubility in dimethyl-formamide: soluble
[2]; soda and alkali solutions
  solubility in soda and alkali solutions: soluble in soda and alkali solutions
[2]
  solubility in water: water-insoluble
[3]; dosage 3750
  Percentage of animal death (died/in group): 3/5
[3]; dosage 4000
  Percentage of animal death (died/in group): 2/5
[3]; dosage 4500
  Percentage of animal death (died/in group): 4/5
[3]; dosage 4750
  Percentage of animal death (died/in group): 5/5
[3]; dosage 5000
  Percentage of animal death (died/in group): 3/5
[3]; dosage 5250
  Percentage of animal death (died/in group): 5/5
[4]; dosage 3000
  Percentage of animal death (died/in group): 0/5
[4]; dosage 3500
  Percentage of animal death (died/in group): 2/5
[4]; dosage 4000
  Percentage of animal death (died/in group): 1/4
[4]; dosage 4500
  Percentage of animal death (died/in group): 3/5
[4]; dosage 5000
  Percentage of animal death (died/in group): 4/7
[4]; dosage 5500
  Percentage of animal death (died/in group): 4/5
[4]; dosage 6000
  Percentage of animal death (died/in group): 5/5
[5]
  Percentage of animal death (died/in group): 3/5
[6]; acute lethal poisoning
  time until animals laid down on the side, comatose: 6 to 8 h
[6]; as a rule, during the first 24-26 hours
  time within which the animals died: 24 to 26 h
[6]; peroral
  overall acute toxicity assessment: substance with low-toxicity
[7]
  vessel permeability in the renal glomerulus: elevated vessel permeability in the renal glomerulus
[8]
  change in blood-formation function, composition of the peripheric blood and urogenous function of the liver: did not lead to a change
[9]
  changes in the anthropological data: no changes in the anthropological data
  irritating action on the liver and kidneys: slight non-specific irritating action on the liver and kidneys
  lesions in the liver and kidneys: slight lesions in the liver and kidneys
  lesions on dissection: no lesions
  local lesion in the liver and kidneys: slight local lesion in the liver and kidneys
  morphological lesions in organs: did not cause morphological lesions in many organs
[10]; 50 mg per kg per day, 30 days
  kidney histology: renal glomerulus became more plethoric, the epithelium of the tubules had a more clearly defined boundary, and the protoplasm became less vacuolized and granular
  liver histology: structure of the lobes and radial location of trabeculas in the liver became clearly defined
  myocardium histology: Dystrophic lesion in the myocardium was less pronounced
  vascular pattern of the iris: Inflation and convolution of the vessels decreased, and the blood flow became homogeneous
[10]
  biochemical and morphological indices: considerable improvements
[1]; 50 mg per kg per day, 30 days
  decrease of thickness of the basal membrane of the muscle capillaries: almost one and a half times
  microangiopathy: Microangiopathy became less pronounced
[1]
  biological activity compared with 1,3-dioxo-1H-benz(de)isoquinoline-2(3H)acetic acid: biologically more active than the prior art compound
  average thickness of the capillary basal membrane of the limb muscles, after administration (M): 98.3 nanometers
[1]; rats having alloxan diabetes for 12 months
  thickness of the basal membrane of the muscle capillaries: 100-120 nm
[1]; rats having six months alloxan diabetes
  thickness of the basal membrane of the muscle capillaries: 65 nm
[11]; Aorta
  Activity of aldose reductase: 7.4 ± 0.8 μmol substruct. per mg of protein
[11]; Cryst. lens
  Activity of aldose reductase: 3.4 ± 0.30 μmol substruct. per mg of protein
[11]; Nerve
  Activity of aldose reductase: 25.5 ± 2.1 μmol substruct. per mg of protein
[11]
  inhibition of aldose reductase: inhibiting properties with respect to aldose reductase; also recorded: inhibitors of aldose reductase
[12]; Cryst. lens
  Fructose: 2.85 ± 0.56 μmol per g of tissue
  Sorbitol: 7.18 ± 0.65 μmol per g of tissue
[12]; Nerve
  Fructose: 3.25 ± 0.73 μmol per g of tissue
  Sorbitol: 9.8 ± 0.94 μmol per g of tissue
[12]; Table 5
  quantity of sorbitol and fructose in the examined tissues: has decreased
[13]
  change of the level of glucose (blood): did not change
[13]; p<0.005
  cholesterin (blood): 100±7.1 mg %
[13]; p<0.02
  fructose (blood): 2.26±0.16 mg %
[13]; p<0.5
  level of glucose (blood): 340.1±27.8 mg %

## O=C(O)CCCN1C(=O)c2cccc3cccc(c23)C1=O [Potassium salt, potassium salt of 1,3-dioxo-1H-benz(de)isoquinoline-2(3H)butyric acid]
[2]
  solubility in benzole: insoluble
  solubility in ethyl alcohol: soluble
  solubility in water: readily soluble
[10]
  biochemical and morphological indices: considerable improvements
[1]
  biological activity compared with 1,3-dioxo-1H-benz(de)isoquinoline-2(3H)acetic acid: biologically more active than the prior art compound
  average thickness of the capillary basal membrane of the limb muscles, after administration (M): 98.6 nanometers
[11]
  inhibition of aldose reductase: inhibiting properties with respect to aldose reductase; also recorded: inhibitors of aldose reductase

## O=C(O)CCCN1C(=O)c2cccc3cccc(c23)C1=O [Sodium salt, sodium salt of 1,3-dioxo-1H-benz(de)isoquinoline-2(3H)butyric acid]
[2]
  solubility in benzole: insoluble
  solubility in ethyl alcohol: slightly soluble
  solubility in water: readily soluble
[10]
  biochemical and morphological indices: considerable improvements
[1]
  biological activity compared with 1,3-dioxo-1H-benz(de)isoquinoline-2(3H)acetic acid: biologically more active than the prior art compound
  average thickness of the capillary basal membrane of the limb muscles, after administration (M): 102 nanometers
[11]
  inhibition of aldose reductase: inhibiting properties with respect to aldose reductase; also recorded: inhibitors of aldose reductase
